Where a SMILES comes first, the peptide text is derived from it. The star is where a group is joined. NHC(CH2OLauroyl)3 = CCCCCCCCCCCC(=O)OCC(COC(=O)CCCCCCCCCCC)(COC(=O)CCCCCCCCCCC)N*
Key:
cells = assay: β-gal reporter transfection, "y" linker non-standard amino acids; assay type: cell-based; details: K3 "y" TL3 compounds
Experimental: Peptide/fatty acyl conjugates were synthesized using the non-standard amino acids amino butyric (C3), amino caproic (C5) and amino caprylic (C7) acids as the linker groups, a tri-lysine nucleic acid binding domain and laurate for the three fatty acyl groups. In these new conjugates the DNA binding and tris/fatty acyl moieties were separated by an extra 3, 5 and 7 carbon bond lengths respectively when compared with the prototype molecule. These compounds were then tested in the standard manner described above to determine their relative capacity to transfect cells.
K3 "y" TL3 compounds, where y=C3, C5, C7, A, L, G were compared for transfection efficiency to each other and the commercial agent Lipofectamine using the standard β-gal reporter gene system described above.

Cos 1 cells [1] = assay: Cellular uptake and distribution of fluorescein conjugates (confocal microscopy); assay type: cell-based, African Green Monkey; details: for cell staining after treatment: cells fixed fifteen minutes after treatment; for persistence of staining: conjugate washed off after 2 hours, cells grown 24 hours; for distribution in live, unfixed cells: 40× objective
Experimental: In order to assess the ability to deliver compounds into cells, preliminary experiments were conducted with fluorescein alanine ethanolamine palmitate (FLAEP) and fluorescein alanine tris tripalmitate (FLATP3).
After the incubation period as specified in the experiment, up to 24 hours exposure, the cells were washed and fixed in formaldehyde for 20 minutes. Cells were then observed under laser excitation in a Bio Rad MRC 500 confocal microscope.

Cos 1 cells [2] = assay type: cell-based, African Green Monkey
Source text: Relative levels of cytotoxicity caused by the different agents were compared during the experiment using the dye "Alamar Blue" (Alamar, Sacramento Calif.).
(§1) For experiment "c", a plasmid pPGKlaczNLS encoding β-galactosidase under the control of the mouse PGK promoter (kind gift from G.Hannan) or pSVGAL which utilises the SV40 early promoter (Sleigh, M. J. and Lockett, T. J. (1985). EMBO J. 4:3831-3837),was transfected. This experiment and assay were modified from Feigner et al J. Biol Chem. 269(4) 2550-2561 1994. This protocol allows the simultaneous assessment of 72 different combinations and concentrations of DNA and test agent in a microtitre tray. […] Cytotoxicity was assessed using alamar blue, and a sample graph is shown for experiment a.
(§2) The ratio of [lipid]/[DNA] at which that maximum was achieved is shown. Experiments shown were carried out in Cos 1 cells, as described above. MTS OD is a measure of relative viabilility of the cells exposed to the different agents, a higher value indicates greater cell viability. * These points were taken from a separate experiment and some slight variation between absolute numbers should be expected between experiments.
(§3) The ratio of [lipid]/[DNA] at which that maximum was achieved is shown in brackets for the two different cell types in the following order; (Cos 1) (CHO). Experiments shown were carried out in Cos 1 cells, as described above. Viability was measured with the dye alamar blue . # Denotes compounds tested in a separate experiment. * Viability in this experiment was determined with MTS. OD is a measure of relative viability of the cells exposed to the different agents, and as with alamar blue, a higher value indicates greater cell viability.

Cos 1 cells [3] = assay: Transfection of pSVLCAT, CAT assay, Cos 1; assay type: cell-based, African Green Monkey
Experimental: To test the transfection properties of the lead compound K3ATP3 (VerafectinA3), whole uncut plasmid carrying the gene encoding CAT (chloramphenicol acetyl transferase) under the control of the SV40 late promoter, pSVLCAT (Cameron, F. H. and Jennings, P. A. (1989) PNAS 86, 9139-9143) was mixed with the test agent and put on Cos 1 cells under various conditions. After 48 hours of culture the level of secreted CAT was assayed from the culture medium.
Solution I: 1 μg Plasmid DNA in 500 μl Dulbeccos Modified Eagles Medium (DME)
Solution II: 0-20 μl VerafectinA3 (2.5 mg/ml 25% DMSO) in 500 μl DME, Vortex
Combine solution I and II, vortex briefly and incubate at room temperature for 10 min.
Add mix to washed cells in 60 mm tissue culture dishes (seeded 0.5×10^6 /dish previous day) for 6 hrs at 37° C., 5% C02. Add 2 ml DME+10% FCS for remainder of 48 hrs. Assay CAT levels in tissue culture medium (Sleigh, M. J. (1986) Anal. Biochem. 156.251-256).
a--Compare VerafectinA3 dissolved in DMSO or ethanol.
b--Compare VerafectinA3 on cells 6 hrs to overnight. VerafectinA3 at 10 mg/ml in 100% solvent was diluted to 2.5 mg/ml with water.
Transfection was carried out as for experiment 1. VerafectinA3 was left in contact with the cells for varying times.
Protocol was the same for the Verafectins as described above. Lipofectamine protocol was according to manufacturers instructions. Cos 1 cells were seeded at 5×10^5 /60 mm dish and adhered overnight in DME with 10% FCS.
Solution A: 0.5 μg pSVLCAT/60 mm dish.
Solution B: Lipofectamine 10 and 15 μl 2 mg/ml (mixed formulation 3:1 with DOPE).
OR; VerafectinA3 and VerafectinG2 20 μl 2 mM (2.8 and 2.3 mg/ml respectively) stock.
OR; VerafectinG2 was also tested with an equimolar amount of DOPE. VerafectinG2 and DOPE were mixed in DDME and vortexed for 30 seconds before use. Solutions A and B were combined before overlaying on washed cells.
The serum free incubation period in the presence of test agents and DNA was 6 hrs, then 1 ml DME+10% FCS was added. At 24 hours medium was changed to 2 ml fresh DME+10% FCS until harvest at 48 hrs.
Cell lines Cos 1 or CHO were transfected with 0.5 μg of pSVLCAT or 2 μg of pPGKlacZ plasmid using a range of concentrations of each transfection compound. The optimal concentration of compound, that is the concentration giving the highest level of CAT at 48 hours or the greatest percentage of lac z (β-galactosidase) staining cells at 24 hours was used to collate data for Table 1. As all compounds were not tested in a single experiment, absolute figures indicating transfection were not used. Rather, symbols are used to indicate the transfection efficiency relative to Lipofectamine (BRL), which was included as a control in all experiments. Table 1 thus indicates the relative efficiencies of a number of compounds in mediating the transfection of at least one cell type.
All test lipopeptide reagents were originally dissolved at 10 mM in 75% DMSO, and subsequently diluted with water to make a 2 mM stock stored at 4° C. Volumes of 2 mM stock lipopeptide ranging from 2 μl to 15 μl were diluted in 500 μl of DDME. 1 μg of plasmid pSVLCAT was separately diluted in 500 μl of DDME. Solutions were combined for 10-20 min at room temperature before adding to 500 μl of DDME in 60 mm dishes of subconfluent CHO cells (2×10^5 day-1) or Cos 1 cells (5×10^5 day-1); washed free of serum with DDME.
Cells were incubated for 6 hrs under standard conditions of 37° C. and 5% CO2 for 6 hours. 1.5 ml of DME/Hams+10% FCS (CHO) or DME+10% FCS (Cos 1) was added to the cells for overnight incubation. Fresh DME/Hams+10% FCS or DME+10% FCS was used to replace the medium for a further 24 hours prior to harvest. Cell lysates were prepared and assayed for CAT activity as described above. For Cos 1 cells, culture supernatants were assayed for CAT activity.
For transfection of pSVLCAT and subsequent assay of CAT enzyme, experiments "a" and "b" were carried out as described above.

Cos 1 cells [4] = assay: β-gal microtitre plate transfection assay, Cos 1; assay type: cell-based, African Green Monkey; details: for relative transfection level (A linker compound as reference): "y" linker experiment c, Cos 1, trilysine trilaurate
Source text: as §1
Compounds were tested for their ability to transfect either the CAT or β-gal gene carried on plasmids, and assayed as described above.
as §2
Each of these compounds was tested for transfection ability and cytotoxicity on standard cell lines using standard conditions as described above.
as §3

Cos 1 cells [5] = assay type: cell-based, African Green Monkey; remark: listed apart in the source
Experimental: Relative levels of cytotoxicity were also assayed in subsequent experiments using the dye MTS, marketed as Cell titre 96 Aqueous (Promega).
as §2, §3

## CCCCCCCCCCCC(=O)OCC(COC(=O)CCCCCCCCCCC)(COC(=O)CCCCCCCCCCC)NC(=O)CCCCCNC(=O)[C@H](CCCCN)NC(=O)[C@H](CCCCN)NC(=O)[C@@H](N)CCCCN [K3C5TL3]
cells
  transfection efficiency compared to Lipofectamine: more efficient at transfection than Lipofectamine
  transfection efficiency compared to standard single amino acid linker: dramatically more efficient than compounds using the standard single amino acid linker

## fluorescein alanine ethanolamine palmitate [FLAEP]
Cos 1 cells [1]; 10 μM
  cell staining after treatment: intense cytoplasmic staining
Cos 1 cells [1]
  persistence of staining: This same persistence of staining was not observed
  distribution in live, unfixed cells: appeared to enter the cell readily, but was concentrated particularly in the nucleus

## fluorescein alanine Tris tripalmitate [FLATP3]
Cos 1 cells [1]; 10 μM
  cell staining after treatment: intense cytoplasmic staining
Cos 1 cells [1]; 10 μM, fixed cells
  localisation of conjugate: appeared to associate preferentially with the cellular and nuclear membranes
Cos 1 cells [1]
  persistence of staining: a pattern that persisted in cells allowed to grow for 24 hours
  distribution in live, unfixed cells: exhibited a similar pattern whether the cells were live or fixed

## CCCCCCCCCCCCCCCC(=O)OCC(CO)(COC(=O)CCCCCCCCCCCCCCC)NC(=O)[C@H](Cc1ccccc1)NC(=O)[C@H](CCCCN)NC(=O)[C@@H](N)CCCCN [K2FTP2]
Cos 1 cells [2]
  toxicity, linkers K, F and L compared: somewhat higher than for the K compound

## CCCCCCCCCCCCCCCC(=O)OCC(COC(=O)CCCCCCCCCCCCCCC)(COC(=O)CCCCCCCCCCCCCCC)NC(=O)[C@H](CCCCN)NC(=O)[C@H](CCCCN)NC(=O)[C@@H](N)CCCCN [K2KTP3]
Cos 1 cells [2]
  cytotoxicity, dipalmitate versus tripalmitate: increase in cytotoxicity

## CCCCCCCCCCCCCCCC(=O)OCC(CO)(COC(=O)CCCCCCCCCCCCCCC)NC(=O)[C@H](CC(C)C)NC(=O)[C@H](CCCCN)NC(=O)[C@@H](N)CCCCN [K2LTP2]
Cos 1 cells [3]; "y" linker experiment a, Cos 1, dilysine dipalmitate
  transfection, linkers K, F and L compared: marginally superior results to F, but was substantially more effective than the K compound
Cos 1 cells [3]; "y" linker experiment b, Cos 1
  transfection, linkers A and L compared: very similar activities
Cos 1 cells [2]
  toxicity, linkers K, F and L compared: somewhat higher than for the K compound

## CCCCCCCCCCCC(=O)OCC(COC(=O)CCCCCCCCCCC)(COC(=O)CCCCCCCCCCC)NC(=O)CNC(=O)[C@H](CCCCN)NC(=O)[C@H](CCCCN)NC(=O)[C@@H](N)CCCCN [K3GTL3] (H-KKKG-{NHC(CH2OLauroyl)3})
cells
  transfection efficiency compared to Lipofectamine: All of the compounds except K3GTL3 were found to be more efficient at transfection than Lipofectamine
Cos 1 cells [4]
  relative transfection level (A linker compound as reference): 12%

## CCCCCCCCCCCCCC(=O)OCC(CO)(COC(=O)CCCCCCCCCCCCC)NC(=O)[C@H](C)NC(=O)[C@H](CCCCN)NC(=O)[C@H](CCCCN)NC(=O)[C@@H](N)CCCCN [K3ATM2]
Cos 1 cells [5]
  MTS OD490-655: 1.56
  Viability (Cos 1): 1.56
Cos 1 cells [4]; Table 2, Cos 1
  ratio [lipid]/[DNA] at which maximum was achieved: 0.35
Cos 1 cells [4]; Table 2, Cos 1, highest reading of 72 conditions
  units β-gal: 3.46 × 10^-5 units
Cos 1 cells [4]; Table 3, Cos 1
  ratio [lipid]/[DNA] at which maximum was achieved: .35
Cos 1 cells [4]; Table 3, Cos 1, highest reading of 72 conditions
  β-gal (Cos 1): 3.46 × 10^-5

## CCCCCCCCCCCC(=O)OCC(COC(=O)CCCCCCCCCCC)(COC(=O)CCCCCCCCCCC)NC(=O)[C@H](CC(C)C)NC(=O)[C@H](CCCCN)NC(=O)[C@H](CCCCN)NC(=O)[C@@H](N)CCCCN [K3LTL3] (H-KKKL-{NHC(CH2OLauroyl)3})
cells
  transfection efficiency compared to Lipofectamine: more efficient at transfection than Lipofectamine
Cos 1 cells [4]
  relative transfection level (A linker compound as reference): 57%

## O=C1OC2(c3ccc(O)cc3Oc3cc(O)ccc32)c2ccccc21 [fluorescein, reference compound]
Cos 1 cells [1]; 10 μM
  cell staining after treatment: only a very weak generalised fluorescence over the whole cell

## CCCCCCCCCCCC(=O)OCC(COC(=O)CCCCCCCCCCC)(COC(=O)CCCCCCCCCCC)NC(=O)CCCNC(=O)[C@H](CCCCN)NC(=O)[C@H](CCCCN)NC(=O)[C@@H](N)CCCCN [K3C3TL3]
cells
  transfection efficiency compared to Lipofectamine: more efficient at transfection than Lipofectamine
  transfection efficiency compared to standard single amino acid linker: dramatically more efficient than compounds using the standard single amino acid linker

— US5906922A, “Delivery of nucleic acids” (Commonwealth Scientific and Industrial Research Organisation, priority 1994, dated 1999)
